From patent US6700013B2, “Tricyclic fused heterocycle compounds, process for preparing the same and use thereof” (Nippon Suisan Kaisha, Ltd., priority 1999, dated 2004)

CCC1C(=O)c2cc(O)c(O)cc2Sc2cc(-c3ccccc3)ccc21 (centres unmarked) [Example 154]
melting point: 274.3 to 276.1 °C

CCC1C(=O)c2cc(O)c(O)cc2Sc2ccc(-c3cccs3)cc21 (centres unmarked) [Example 162]
melting point: 225.7 to 227.4 °C

CCC1C(=O)c2cc(O)c(O)cc2Sc2cc(-c3ccc(O)cc3)ccc21 (centres unmarked) [Example 177]
melting point: 155.4 to 159.4 °C

CCC1C(=O)c2cc(O)c(O)cc2Sc2cc(-c3ccccc3C)ccc21 (centres unmarked) [Example 158]
melting point: 179.2 to 181.1 °C

N#Cc1ccc2c(c1)CCc1c(O)cc(O)cc1O2 [Example 122]
melting point: 211.8 to 217.3 °C

O=C1Cc2cc(Cl)ccc2Sc2cc(O)cc(O)c21 [Example 15]
melting point: 217.9 to 221.6 °C

Cc1ccccc1-c1ccc2c(c1)Sc1cc(O)cc(O)c1C(=O)C2 [Example 89]
melting point: 178.1 to 198.3 °C

Oc1cc(O)c2c(c1)Sc1cc(-c3cccs3)ccc1CC2 [Example 123]
melting point: 196.1 to 198.5 °C

CCCCC(=O)c1ccc2c(c1)CCc1c(O)cc(O)cc1S2 [Example 131]
melting point: 155.1 to 158.7 °C

Nc1cccc(-c2ccc3c(c2)CC(=O)c2c(O)cc(O)cc2O3)c1 [Example 59]
melting point: > 300 °C (dec.)

CCON=C(C)c1ccc2c(c1)CCc1c(O)cc(O)cc1S2 [Example 139]
melting point: 110.7 to 112.4 °C

CCC1=Cc2cc(O)c(O)cc2Sc2ccccc21 [Example 143]
melting point: 37.9 to 41.5 °C

O=C1Cc2cc(-c3cccs3)ccc2Oc2cc(O)cc(O)c21 [Example 58]
melting point: 199.9 to 201 °C

O=C1Cc2ccc(Br)cc2Sc2cc(O)cc(O)c21 [Example 9, 3-Bromo-7,9-dihydroxy-10,11-dihydrodibenzo[b,f]thiepin-10-one]
melting point: > 200 °C (dec.)

O=C1Cc2ccc(-c3cc4ccccc4o3)cc2Sc2cc(O)cc(O)c21 [Example 92]
melting point: 251.6 to 253.8 °C

Cc1ccc(-c2ccc3c(c2)CC(=O)c2c(O)cc(O)cc2O3)cc1 [Example 60]
melting point: 174 to 175 °C

CCC1C(=O)c2cc(O)c(O)cc2Sc2cc(-c3ccc(OC(F)(F)F)cc3)ccc21 (centres unmarked) [Example 169]
melting point: 216.8 to 219.1 °C

Oc1cc(O)c2c(c1)Sc1ccc(-c3cccs3)cc1CC2 [Example 126]
melting point: 207.3 to 208.1 °C

O=C1Cc2cc(-c3cccs3)ccc2Sc2cc(O)cc(O)c21 [Example 76]
melting point: 240.1 to 246.1 °C

O=C1Cc2cc(-c3ccc(O)cc3O)ccc2Oc2cc(O)cc(O)c21 [Example 77]
melting point: 212.6 to 215.7 °C

Oc1cc(O)c2c(c1)Oc1cc(-c3cccc(Cl)c3)ccc1CC2 [Example 118]
melting point: 137.1 to 143.2 °C

CCC1C(=O)c2cc(O)c(O)cc2Sc2cc(-c3cc4ccccc4o3)ccc21 (centres unmarked) [Example 168]
melting point: 293.2 °C (dec.)

CCC1C(=O)c2cc(O)c(O)cc2Sc2cc(-c3cccc(N)c3)ccc21 (centres unmarked) [Example 176]
melting point: 245.5 to 246.4 °C

CCC1C(=O)c2cc(O)c(O)cc2Sc2cc(-c3cccc(Cl)c3)ccc21 (centres unmarked) [Example 157]
melting point: 175.5 to 176.8 °C

Cc1ccccc1-c1ccc2c(c1)Oc1cc(O)cc(O)c1C(=O)C2 [Example 72]
melting point: 163.5 to 165.8 °C

CCC1C(=O)c2cc(O)c(O)cc2Sc2cc(-c3cccs3)ccc21 (centres unmarked) [Example 155]
melting point: 270.3 to 271.9 °C

O=C1Cc2cc(-c3cccc(Cl)c3)ccc2Oc2cc(O)cc(O)c21 [Example 61]
melting point: 208.9 to 213.6 °C

Oc1cc2c(c(O)c1O)CCc1cc(-c3ccccc3)ccc1O2 [Example 125]
melting point: 175.1 to 178.3 °C

CCCC(=O)c1ccc2c(c1)CCc1c(O)cc(O)cc1S2 [Example 129]
melting point: 151.8 to 152.8 °C

O=C(c1ccc2c(c1)CCc1c(O)cc(O)cc1S2)C1CCC1 [Example 134]
melting point: 141.2 to 141.7 °C

Cc1ccc(-c2ccc3c(c2)Sc2cc(O)cc(O)c2C(=O)C3)cc1 [Example 86]
melting point: 228.4 to 235.2 °C

O=C1Cc2ccc(-c3ccco3)cc2Oc2cc(O)cc(O)c21 [Example 70]
melting point: 249.6 to 250.8 °C
